In patent US20060079453A1, “Hla binding peptides and their uses” (priority 2002, published 2006) one finds IC50 data, which are given here for 16 sequences.

Where two headings read alike, the source gives them in different places. No end group written: not given here. A value given as a limit tells only on which side of the number the result lay.

Holding throughout (assay): biochemical
Assay [1] concerns the target HLA-B*4001 (Homo sapiens, UniProt P01889, A65T/A93T/A95T/D138N/D98Y/E176V/E69K/N87E/Q56L/Q94N/R180L/S121R/S35A/S48T/T167S/V36M/W171L/Y33H/Y91S). It counts as binding.
In assay [2] the target is HLA-B*4501 (Homo sapiens, UniProt P01889, A329T/A65T/A93T/A95T/C349S/D138N/D201E/D98Y/E176V/E187L/E204Q/E69K/H137Y/K202T/L119W/N87E/Q56L/Q94N/R155S/R180D/S121R/S35A/S48T/V127L/V306I/V36M/W191S/Y140L/Y33H/Y91S). Type of assay: binding.
Assay [3] concerns the target H-2Kk (Mus musculus, UniProt P04223). It counts as binding, murine.
For assay [4], the target named is HLA-B*1801 (Homo sapiens, UniProt P01889, A329T/A93T/A95T/C349S/D201E/D54G/D98Y/E176V/E187T/E204Q/E69T/K202T/Q94N/R155S/R180L/S121R/V306I/Y140S/Y195H/Y33H/Y91S). Type of assay: binding.
The target of assay [5] is HLA-B*4002 (Homo sapiens, UniProt P01889, A65T/A93T/A95T/D138N/D201E/D98Y/E176V/E204Q/E69K/K202T/N87E/Q56L/Q94N/R180L/S48T/Y33H/Y91S). It counts as binding.
Assay [6] has as its target HLA-B*4402 (Homo sapiens, UniProt P01889, A223V/A65T/A93T/A95T/D201E/D98Y/E176V/E187L/E204Q/E69K/G107R/H137Y/K202T/L105A/L119I/N104T/N87E/Q56L/Q94N/R106L/R155S/R180D/S101N/S121R/S35A/S48T/T118I/V36M/W191S/Y140D/Y91S). It counts as binding.
Assay [7] has as its target HLA-DR DRB1*0802 (DR8) (Homo sapiens, UniProt P01903+P01911, A100R/A103L/A169T/F76Y/H45Y/I96F/K41T/L162R/M171V/P40S/Q125H/Q178H/Q39Y/Q99D/R218S/R42G/S66Y/V115G/W38E). It counts as binding.
In assay [8] the target is HLA-DR DRB4*0101 (DR53) (Homo sapiens, UniProt P01903+P13762, G164S). Type of assay: binding. As to conditions: DRB4 *0101.
For assay [9], the target named is HLA-DR DRB3*0101 (DR52) (Homo sapiens, UniProt P01903+P79483). It counts as binding.
Assay [10] concerns the target HLA-DR DRB1*1501 (DR15) (Homo sapiens, UniProt P01903+P01911). It counts as binding. The following applies: DRBI *1501.
Assay [11] deals with HLA-DR DRB5*0101 (DR51) (Homo sapiens, UniProt P01903+Q30154). Type of assay: binding. The following applies: DRB5 *0101.
Assay [12] addresses HLA-DR DRB1*0405 (DR4) (Homo sapiens, UniProt P01903+P01911, A100R/A169T/D86S/F76Y/I96L/K127E/L162R/M171V/N62H/P40V/Q125Y/R42H/S133A/S149N/S66Y/V115G/V209L/W38E). Type of assay: binding. The following applies: DRB1 *0405.
Assay [13] addresses HLA-DR DRB1*1101 (DR11) (Homo sapiens, UniProt P01903+P01911, A100R/A169T/A87E/I96F/K41T/L162R/M171V/P40S/Q125H/Q178H/Q39Y/Q99D/R42S/S66Y/T262R/V115G/W38E). It counts as binding. The following applies: DRB1 *1101.
The target of assay [14] is HLA-DQ DQA1*0301/B*0302 (DQ8) (Homo sapiens, UniProt P01909+P01920, A209T/A45G/C70Q/D89A/DUP78-78/E183D/E77G/F237L/G63E/H199R/I129T/K197E/L178F/L74F/L98V/Q57E/Q76R/S185I/S97I/T217I/T49S/V73L/Y58L).
The target in assay [15] is HLA-DR DRB1*0301 (DR3) (Homo sapiens, UniProt P01903+P01911, A100K/A102G/A103R/A169T/F55Y/I96L/K41T/L162R/M171V/P40S/Q125H/Q178H/Q39Y/R42S/S66N/T106N/T262R/W38E/Y61H). It counts as binding.
Assay [16] has as its target HLA-DR DRB1*0701 (DR7) (Homo sapiens, UniProt P01903+P01911, A100R/A102G/A103Q/D57E/D86V/E43K/F76Y/K127E/L162R/M171V/P40G/Q125H/Q99D/R33Q/R42Y/R54Q/S133A/S66F/T210M/V115G/Y107V/Y59L/Y89S). Type of assay: binding. As to conditions: DRB1 *0701.
Assay [17] addresses HLA-DR DRB1*0901 (DR9) (Homo sapiens, UniProt P01903+P01911, A100R/A103E/D57H/D86V/F55Y/F60I/F76Y/I96F/K127E/L162R/M171V/P40D/Q125H/Q99R/R33Q/R42F/S133A/S66N/T210M/V115G/W38K/Y107V/Y59G/Y89S). Type of assay: binding. The following applies: DRB1 *0901.
Assay [18] has as its target HLA-DR DRB1*1302 (DR13) (Homo sapiens, UniProt P01903+P01911, A100E/A169T/K41T/L162R/M171V/P40S/Q125H/Q178H/Q39Y/Q99D/R42S/S66N/T262R/V115G/W38E/Y61H). Type of assay: binding. The following applies: DRBI *1302.
Assay [19] deals with HLA-DR DRB1*0401 (DR4) (Homo sapiens, UniProt P01903+P01911, A100K/A169T/F76Y/I96L/K127E/L162R/M171V/N62H/P40V/Q125Y/R42H/S133A/S149N/S66Y/V115G/V209L/W38E). It counts as binding. The following applies: DRB1 *0401.
Assay [20] concerns the target HLA-DQ DQA1*0301/B*0301 (DQ7) (Homo sapiens, UniProt P01909+P01920, A209T/C70Q/DUP78-78/E183D/F237L/G63E/I129T/K197E/L178F/L74F/L98V/Q57E/Q76R/S185I/S97I/T49S/V73L). It counts as binding.
The target of assay [21] is HLA-DR DRB1*0101 (DR1) (Homo sapiens, UniProt P01903+P01911, A100R/D57E/F55L/F60I/F76Y/I96L/L162R/M171V/P40L/Q125E/R42F/V115G/Y59C). It counts as binding. As to conditions: DRB1 *0101.
Assay [22] has as its target HLA-DQ DQA1*0501/B*0201 (DQ2) (Homo sapiens, UniProt P01909+P01920, A45G/A70V/D89A/E106A/E77G/E98D/H199R/L107V/N214S/P84L/P87L/T103K/T109R/T172A/T60S/V78E/V99I/Y58L/Y62S/Y69I/Y79F).
In assay [23] the target is HLA-B*4403 (Homo sapiens, UniProt P01889, A223V/A65T/A93T/A95T/D201E/D98Y/E176V/E187L/E204Q/E69K/G107R/H137Y/K202T/L105A/L119I/N104T/N87E/Q56L/Q94N/R106L/R155S/R180L/S101N/S121R/S35A/S48T/T118I/V36M/W191S/Y140D/Y91S). Type of assay: binding.

Chain of HLA-DR DRB1*0301 (DR3) (P01903 26-254 limits assumed, other chains not shown): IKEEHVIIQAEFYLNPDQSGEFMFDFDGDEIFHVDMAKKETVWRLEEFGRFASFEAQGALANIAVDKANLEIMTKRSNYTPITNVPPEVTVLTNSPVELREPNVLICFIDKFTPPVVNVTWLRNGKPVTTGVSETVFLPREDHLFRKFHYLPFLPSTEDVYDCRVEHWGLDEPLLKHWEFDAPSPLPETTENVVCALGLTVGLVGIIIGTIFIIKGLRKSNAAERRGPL
Chain of HLA-DR DRB1*1302 (DR13) (P01903 26-254 limits assumed, other chains not shown): as above
Chain of HLA-DR DRB1*1101 (DR11) (P01903 26-254 limits assumed, other chains not shown): as above
Chain of H-2Kk (P04223 22-369): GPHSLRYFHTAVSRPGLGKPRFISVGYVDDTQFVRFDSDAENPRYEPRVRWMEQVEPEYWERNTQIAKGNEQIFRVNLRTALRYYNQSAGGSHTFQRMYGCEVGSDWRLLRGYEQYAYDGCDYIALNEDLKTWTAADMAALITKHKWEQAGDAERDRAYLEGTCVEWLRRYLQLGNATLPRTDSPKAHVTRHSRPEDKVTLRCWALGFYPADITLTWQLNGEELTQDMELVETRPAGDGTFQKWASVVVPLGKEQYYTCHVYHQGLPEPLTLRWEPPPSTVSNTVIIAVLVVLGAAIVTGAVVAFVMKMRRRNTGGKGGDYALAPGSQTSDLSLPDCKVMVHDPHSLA
Chain of H-2Kk (P61769 21-119, further chain): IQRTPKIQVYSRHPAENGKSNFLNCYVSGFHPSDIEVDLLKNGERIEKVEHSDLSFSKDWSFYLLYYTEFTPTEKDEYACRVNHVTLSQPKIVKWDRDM

With YEDTGKTI, the IC50 in assay [1] (B*4001) is 794 nM; in assay [2] (read-out: B*4501), 49000 nM; in assay [3] it was 0.86 nM; in [4] (B*1801), 14000 nM; in assay [5] (B*4002) it was 83 nM; in assay [6] (B*4402) it was 7910 nM.

As to MSYNLLGFLQRSSNT, the IC50 in assay [7] was found to be 900 nM; in [8], 4660 nM; in [9], 51800 nM; in [10], 6.8 nM; in [11] it was 9 nM; in assay [12], 433 nM. For the same sequence, the IC50 in assay [13] is 3070 nM; in assay [14], more than 51200 nM; in assay [15], 108000 nM; in assay [16], 8870 nM; in assay [17], 8970 nM; in assay [18], 1330 nM.

Consider ISLLLIQSWLEPVQF, for which the IC50 in assay [7] is more than 33300 nM; in [8], 2.5 nM; in [19], 885 nM; in [9] it was 6760 nM; in [20], more than 89300 nM; in assay [10], 60 nM. Moreover, the IC50 in assay [21] is 184 nM; in assay [11], more than 9960 nM; in assay [22] it was 5230 nM; in [12], 0.86 nM; in assay [13] it was 2680 nM; in [14], 562 nM. In addition, the IC50 was 27900 nM in assay [15], 83 nM in assay [16] and 120 nM in assay [18].

In assay [14], IDVWLGGLKENFLPY yielded an IC50 of more than 2800 nM.

As for IDVWLGGLAENFLPY, the values for the IC50 in assay [20], in assay [22] and in [14] were 204 nM, 13 nM and 138 nM, respectively.

For the sequence IDVWLGGLAKNFLPY, the IC50 in assay [22] is more than 4170 nM.

As for SDYEGRLI, the IC50 in assay [23] is 228 nM; in assay [3], 0.6 nM; in assay [4] it was more than 24800 nM; in assay [5], 86 nM.

Take SAAPLRTITADTFRK: the IC50 in [7] was 28100 nM; in assay [20], 301 nM; in assay [22], 1100 nM; in [12], 1460 nM; in [14], more than 46700 nM; in assay [16] it was 3650 nM.

Regarding SEAAYAKKI, the IC50 in assay [1] (B*4001) is 308 nM; in [23] (B*4403) it was 61 nM; in assay [3], 3.9 nM; in assay [4] (B*1801), 8610 nM; in [6] (B*4402), 1680 nM.

Take NEILIRCII: the IC50 in assay [23] (B*4403) turned out to be 258 nM; in assay [2] (B*4501) it was 3250 nM; in assay [3], 12 nM; in assay [4] (B*1801), 5670 nM; in [5] (B*4002), 59 nM.

YENDIEKKI: the IC50 in assay [23] (B*4403) came to 371 nM; in assay [3] it was 3.8 nM; in [4] (B*1801), 31000 nM; in assay [6] (B*4402), 1730 nM.

As for RLFDNASLRAHRLHQ, the IC50 in assay [7] was 15000 nM; in [8], 3210 nM; in assay [19], 77 nM; in assay [9], 11400 nM; in assay [10], 85 nM; in assay [21], 89 nM. The IC50 in assay [11] was 557 nM; in assay [14] it was more than 36200 nM; in assay [15], 97 nM; in assay [17], 23800 nM; in [18], 84 nM.

With WKRMEVGQQAVEVWQ, the IC50 in assay [19] was 24 nM; in [9], more than 42200 nM; in assay [20], 13700 nM; in assay [21] it was 62 nM; in [11] it was 4300 nM; in assay [22], 159 nM. Also, the IC50 is 94 nM in [12]; 512 nM in [13]; 12100 nM in [14]; 46100 nM in [16]; 14700 nM in assay [17]; 159 nM in [18].

Regarding YEANGNLI, the IC50 in assay [1] was determined as 7.9 nM; in assay [3], 0.65 nM; in assay [4] it was 191 nM; in assay [5] it was 7 nM; in assay [6], 516 nM.

QEKKRHVDL: the IC50 in assay [1] (B*4001) was determined as 16000 nM; in [2] (B*4501), 12600 nM; in assay [3] it was 256 nM; in assay [4] (B*1801), 7.3 nM; in assay [5] (B*4002), 63100 nM; in [6] (B*4402), 443 nM.

In the case of HETTYNSI, the IC50 in [2] (B*4501) came out at 6610 nM; in [3], 1.8 nM; in assay [4] (B*1801), 1640 nM; in assay [5] (B*4002), 336 nM; in [6] (B*4402), 616 nM.
